{
  "source": "patent US20220087969A1",
  "about": "“METHOD FOR TREATING ASTHMA” (Olatec Therapeutics LLC, priority 2019, published 2022)",
  "key": {"[1]": {"conditions": "humans, oral 1000 mg/day; Marchetti 2018b; cited from earlier work"}, "[2]": {"system": "OVA-induced allergic airway inflammation", "assay": "Leukocyte subpopulations in BALF, OVA model, oral dapansutrile in food", "assay_type": "in vivo, mice", "experimental": "The experimental protocols of the mouse model were the same as those described in Example 1, except dapansutrile was administered orally by food. The already-sensitized mice were fed ad libidum with food pellets containing 7.5 g/kg dapansutrile starting on day 22 for one week; the first aerosol challenge was on day 26. Mice typically consume about 4 g of food per day, resulting in an approximate daily dose of 0 mg/kg/day for control groups and 1,000 mg/kg/day for the treatment groups. […] OVA-sensitized, OVA-challenged asthmatic controls (asthmatic) were fed with control food pellets without dapansutrile."}, "[3]": {"system": "OVA-induced allergic airway inflammation", "assay": "Airway resistance in methacholine provocation test, OVA model, i.p. dapansutrile", "assay_type": "in vivo, C57BL/6j mice", "conditions": "60 mg/kg i.p., Day 29, 100 mg/mL methacholine", "experimental": "C57BL/6j mice were sensitized to OVA (ovalbumin) by three intraperitoneal (i.p.) injections of 10 μg OVA adsorbed to 150 mg aluminum hydroxide on days 1, 14, and 21. This sensitization results in an adoptive immune response against OVA with OVA-specific TH2 cells and the production of OVA-specific antibodies of the subclasses IgE and […]. To induce acute allergic airway inflammation, mice were exposed three times to an OVA aerosol (1% w/v in PBS) on days 26, 27, and 28. Healthy control animals (healthy group) were sham sensitized to PBS and subsequently challenged with PBS aerosol. […] The following readouts were measured according to Lunding, 2015b. • General infiltration of inflammatory cells into the broncheoalveolar lumen • Determination of the specific infiltration of eosinophils, neutrophils and lymphocytes by histologic differentiation of the bronchoalveolar lavage (BAL) cells. • Goblet cell hyperplasia by CAST system (Computer Assisted Stereological Toolbox), including making microscopic pictures of the airways. • Airway resistance in response to methacholine to determine the airway hyperresponsiveness. Specifically, inflammatory cell subpopulations (eosinophils, macrophages, neutrophils, lymphocytes) infiltrating the bronchoalveolar lumen were quantified using cyto-spinned and quick-diff-stained cells from bronchoalveolar lavage fluids (BALF). […]"}, "[4]": {"system": "IFN-γ, TNFα, IL-1β, IL-4, IL-5, IL-6, IL-10, IL-13, and IL17A", "assay": "Cytometric bead array of cytokines in BALF of Example 1", "assay_type": "in vivo, C57BL/6j mice", "conditions": "60 mg/kg i.p., treated vs asthmatic mice", "description": "Cytometric bead arrays were used as a method to assess the concentration of cytokines of IFN-γ, TNFα, IL-1β, IL-4, IL-5, IL-6, IL-10, IL-13, and IL17A) in the BALF of Example 1. The beads in this array were coated with antibodies specific against a variety of cytokines, some relevant and known to be affected by NLRP3 signaling."}, "[5]": {"assay": "Blood level in mice fed dapansutrile food pellets", "assay_type": "in vivo, mouse", "conditions": "7.5 g/kg dapansutrile in food, nearly the same as the human level", "experimental": "The already-sensitized mice were fed ad libidum with food pellets containing 7.5 g/kg dapansutrile starting on day 22 for one week; the first aerosol challenge was on day 26. Mice typically consume about 4 g of food per day, resulting in an approximate daily dose of 0 mg/kg/day for control groups and 1,000 mg/kg/day for the treatment groups."}, "[6]": {"conditions": "oral, 7.5 g/kg in food, vs asthmatic mice, p<0.05"}},
  "note": "Read-outs that look alike come from different tables or passages of the source.",
  "data": [
    {"smiles": "CS(=O)(=O)CCC#N", "note": "[dapansutrile, 3-methanesulfonylpropionitrile]", "values": [
      {"measurement": "blood level", "setting": "[1]", "value": 40000, "unit": "ng/mL"},
      {"measurement": "reduction in eosinophils in BALF", "setting": "[2]; oral, 7.5 g/kg in food from day 22 for one week, vs asthmatic mice, p<0.0001", "value": "~75", "unit": "%"},
      {"measurement": "macrophage numbers in BALF", "setting": "[2]; oral, 7.5 g/kg in food, vs asthmatic mice", "value": "no significant reduction"},
      {"measurement": "reduction in lymphocytes in BALF", "setting": "[2]; [6]", "value": "~75", "unit": "%"},
      {"measurement": "reduction in neutrophils in BALF", "setting": "[2]; [6]", "value": "~75", "unit": "%"},
      {"measurement": "lymphocytes in BALF", "setting": "[2]; treated mice, oral 7.5 g/kg in food, asthmatic 1.00×10^4", "value": "0.26×10^4 cells/ml"},
      {"measurement": "neutrophils in BALF", "setting": "[2]; treated mice, oral 7.5 g/kg in food, asthmatic 1.74×10^4", "value": "0.43×10^4 cells/ml"},
      {"measurement": "eosinophils in BALF", "setting": "[2]; treated mice, oral 7.5 g/kg in food, asthmatic 15.93×10^4", "value": "3.77×10^4 cells/ml"},
      {"measurement": "reduction of airway resistance", "setting": "[3]; vs asthmatic mice, p<0.0001", "value": "about 60%"},
      {"measurement": "airway resistance in response to methacholine", "setting": "[3]; treated mice, asthmatic 5.61, healthy 2.83", "value": 3.93, "unit": "cm H2O·sec·ml^−1"},
      {"measurement": "concentrations of all measured cytokines in BALF", "setting": "[4]", "value": "some reduction"},
      {"measurement": "IL-1β concentration in BALF", "setting": "[4]; p<0.001", "value": "statistically significant reduction"},
      {"measurement": "IL-6 concentration in BALF", "setting": "[4]; p<0.05", "value": "statistically significant reduction"},
      {"measurement": "blood level", "setting": "[5]", "value": "~40000", "unit": "ng/mL"}
    ]}
  ]
}
